Source: publication PMC10981309, “Dual-targeting tigecycline nanoparticles for treating intracranial infections caused by multidrug-resistant Acinetobacter baumannii” (Journal of Nanobiotechnology, 2024)
Converted amounts (≈) assume the structure as drawn.

Experiments:
bEnd.3 cells monolayer = assay: Transmembrane transport assay, in vitro BBB model; type: in vitro ADME; conditions: bEnd.3 Transwell monolayer, apical to basolateral, TGC by HPLC
Method: An in vitro blood–brain barrier (BBB) model using bEnd.3 cells was developed to assess nanoparticle penetration. 2.0 × 10^5 cells were cultured in a Transwell chamber, achieving an intercellular compactness verified at 200 Ω·cm^2 transendothelial electrical resistance. […] Using Hank's Balanced Salt Solution, nanoparticles were added to the apical side and co-incubated. At intervals, 200 μL HBSS was sampled from the basolateral side for TGC concentration analysis via HPLC.

[1] = Histological analysis (H&E) of heart, liver, spleen, lungs and kidneys; type: in vivo, rats; conditions: compared to normal control group
Excerpt: To further investigate the biosafety of the various formulations in vivo, blood samples were collected post-administration for biochemical analysis. After euthanizing the rats, their heart, liver, spleen, lung, and kidney tissues were harvested. These tissues underwent hematoxylin and eosin (H&E) staining and were subsequently imaged using a pathology slide scanner.

bEnd.3 cells = assay: Cell cytotoxicity, MTT assay; type: cell-based; conditions: 24-h incubation, across a range of TGC concentrations
[2] = In vitro drug release, dialysis method in PBS pH 7.4; type: physicochemical; conditions: PBS pH 7.4, 37 °C
Method: An in vitro drug release study was conducted employing the dialysis method, with phosphate-buffered saline (PBS, pH = 7.4) as the release medium. For this study, 2 mL aliquots of free Tigecycline (TGC), CSs, or Aβ11/T80@CSs (each containing 1 mg of TGC) were sealed in dialysis bags with a molecular weight cutoff of 3.5 kDa. These bags were then immersed in 30 mL of PBS and gently agitated at 37 °C. At predetermined time intervals, 1.0 mL of PBS was sampled from outside each dialysis bag for HPLC analysis, and an equivalent volume of fresh PBS was replenished to maintain a constant volume in the release medium.

[3] = tested on: multidrug-resistant A. baumannii; assay: Minimum inhibitory concentration, microbroth dilution; type: cell-based; conditions: Acinetobacter baumannii; 1 × 10^5 CFU/mL, 24 h, OD 600 nm
Method: Mid-log phase bacteria, diluted to 1 × 10^5 CFU/mL, were mixed with these compounds (0.125–16 μg/mL) and incubated in 96-well plates for 24 h, with bacterial density measured at 600 nm. In a rat model, MDR A. baumannii was injected intracisternally (20 μL, 1 × 10^8 CFU/mL) into the CSF. […] CSF was collected after 24 h and cultured, with colony counts noted after 24 h at 37 °C.

Hemolysis assay = assay: Hemolysis assay; parameters: species or system rats; conditions: rat; 2% erythrocyte suspension, 37 °C, three hours, relative to positive control (water); read-out: hemolysis rate
Method: The hemolytic activity of Aβ11/T80@CSs was assessed using erythrocytes from healthy rats. Blood samples were collected, and red blood cells were isolated through centrifugation, followed by suspension in normal saline to create a 2% erythrocyte solution. Two milliliters of this erythrocyte suspension were mixed with free TGC, CSs, or Aβ11/T80@CSs and incubated at 37 °C for three hours. Post-incubation, the samples were centrifuged, and the absorbance of the supernatant was measured using spectrophotometry at 570 nm. Purified water and normal saline served as positive and negative controls, respectively. The percentage of hemolysis was calculated using the following formula: Hemolysis%=Asample-Anegative/Apositive-Anegativ×100%

[4] = Pharmacokinetics after intravenous injection; type: in vivo; conditions: female, Sprague-Dawley, rat, rats, i.v. 12.5 mg/kg TGC, plasma
Method: In the pharmacokinetic study, adult female Sprague–Dawley rats, weighing between 200 and 250 g, were used. Prior to the experiment, the animals were fasted overnight with free access to water. […] Each group received an intravenous administration of TGC at a dose of 12.5 mg/kg via the tail vein. Blood samples were collected at predetermined time points (0.25, 0.5, 1, 2, 4, 6, and 8 h), and then placed into 2 mL Eppendorf tubes. These samples were centrifuged at 10,000 rpm for 10 min at 4 °C to separate the plasma. A portion of the plasma was mixed with methanol in a 1:4 volume ratio and further centrifuged at 13,000 rpm for 10 min at 4 °C. The supernatant was collected for TGC concentration determination using HPLC. Pharmacokinetic parameters were subsequently calculated using the statistical analysis tool DAS2.

permeability / transport capacity across in vitro BBB model (bEnd.3 cells monolayer): lowest permeability
histopathology of heart, liver, spleen, lungs and kidneys [1]: no significant pathological alterations
time to complete release [2]: within three hours
MIC [3]: 2 µg/mL (≈ 3.41 µM)
Cmax [4]: 3700 ± 620 ng/mL
Tmax [4]: 15 min
clearance [4]: 20 mL/min/kg
half-life [4]: 46.2 ± 14.4 min
AUC(0-t) ([4]; 0-8 h): 8480 ± 2900 ng·h/mL
MRT last ([4]; read-out: MRT(0-t)): 156 ± 9.6 min
Structure (SMILES): CN(C)c1cc(NC(=O)CNC(C)(C)C)c(O)c2c1C[C@H]1C[C@H]3[C@H](N(C)C)C(O)=C(C(N)=O)C(=O)[C@@]3(O)C(O)=C1C2=O [Free-TGC, Tigecycline]
cell survival rate (bEnd.3 cells): exceeded 80%
hemolysis at 3 h (Hemolysis assay): < 5%
